Read-outs that look alike come from different tables or passages of the source.
Tests used:
AktK = AktK (Homo sapiens, UniProt P31749); test: Luciferase-coupled chemiluminescence kinase assay (ATP consumption); format: biochemical; details: read-out: AKT-1 IC50
Outline: (§1)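 Enzyme at 2.5-5 nM was preincubated 30 min at room temperature with compound in Tris pH 7.5, MgCl2, TX-100, DTT, then reacted with ATP for 3 h at ambient temperature. Remaining ATP was quantified by luciferase-luciferin chemiluminescence, with consumption kept at 25-60%; […].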

p70S6K = p70S6K (Homo sapiens, UniProt P23443); test: as above; format: biochemical
Outline: as §1

Chain of p70S6K (P23443 whole entry): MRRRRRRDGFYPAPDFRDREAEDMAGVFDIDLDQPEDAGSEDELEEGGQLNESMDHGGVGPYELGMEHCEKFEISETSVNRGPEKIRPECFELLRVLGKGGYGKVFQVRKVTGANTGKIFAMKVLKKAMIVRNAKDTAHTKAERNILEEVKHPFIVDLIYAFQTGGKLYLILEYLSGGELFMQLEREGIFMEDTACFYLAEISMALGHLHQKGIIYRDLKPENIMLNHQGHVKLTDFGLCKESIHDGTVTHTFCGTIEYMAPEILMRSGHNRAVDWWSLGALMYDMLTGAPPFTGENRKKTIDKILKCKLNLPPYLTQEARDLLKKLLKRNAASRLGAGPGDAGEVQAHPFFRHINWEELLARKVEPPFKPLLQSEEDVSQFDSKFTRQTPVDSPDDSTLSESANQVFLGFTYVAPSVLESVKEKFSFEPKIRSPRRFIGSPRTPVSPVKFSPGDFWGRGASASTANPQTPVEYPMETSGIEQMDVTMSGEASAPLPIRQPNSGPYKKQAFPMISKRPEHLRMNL
Chain of AktK (P31749 whole entry): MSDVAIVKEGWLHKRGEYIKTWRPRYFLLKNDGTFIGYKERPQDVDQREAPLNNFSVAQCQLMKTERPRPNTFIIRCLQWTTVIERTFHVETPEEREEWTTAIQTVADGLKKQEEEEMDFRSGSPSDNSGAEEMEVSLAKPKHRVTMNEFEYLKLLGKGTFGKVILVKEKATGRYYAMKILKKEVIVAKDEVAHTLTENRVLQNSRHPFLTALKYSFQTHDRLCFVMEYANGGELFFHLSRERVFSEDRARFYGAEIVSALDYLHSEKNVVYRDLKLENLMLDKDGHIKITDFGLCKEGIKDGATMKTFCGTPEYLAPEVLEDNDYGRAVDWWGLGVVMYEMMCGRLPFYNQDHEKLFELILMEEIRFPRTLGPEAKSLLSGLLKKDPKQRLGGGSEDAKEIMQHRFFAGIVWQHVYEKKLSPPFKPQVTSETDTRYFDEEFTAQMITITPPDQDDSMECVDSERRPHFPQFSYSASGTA

IC50 (AktK)	IC50 (p70S6K)	IC50 (AktK; Table 1, class symbols per key)	IC50 (p70S6K; Table 1, class symbols per key)	SMILES
1000 to 10000 nM	100 to 1000 nM	–	–	Cc1ccc(Cl)cc1N1CCN(c2ncnc3[nH]nc(-c4ccc(Oc5ccccc5)cc4)c23)CC1 [Entry 358, 4-[4-(5-chloro-2-methylphenyl)piperazin-1-yl]-3-[4-(phenyloxy)phenyl]-1H-pyrazolo[3,4-d]pyrimidine]
–	–	100 to 1000 nM	< 100 nM	CON(C)C(=O)c1cc(NCCN2CCCC2)c(C)c(N2CCN(c3ncnc4[nH]nc(Br)c34)CC2)c1 [Entry 249, 3-[4-(3-bromo-1H-pyrazolo[3,4-d]pyrimidin-4-yl)piperazin-1-yl]-N,4-dimethyl-N-(methyloxy)-5-[(2-pyrrolidin-1-ylethyl)amino]benzamide]
–	–	< 100 nM	< 100 nM	Cc1c(NCCN2CCCC2)cc(C(=O)Nc2ccccc2Cl)cc1N1CCN(c2ncnc3[nH]nc(Br)c23)CC1 [Entry 204, 3-[4-(3-bromo-1H-pyrazolo[3,4-d]pyrimidin-4-yl)piperazin-1-yl]-N-(2-chlorophenyl)-4-methyl-5-[(2-pyrrolidin-1-ylethyl)amino]benzamide]
–	–	≥ 10000 nM	100 to 1000 nM	Brc1n[nH]c2ncnc(N3CCN(c4nccc(-c5ccco5)n4)CC3)c12 [Entry 143, 3-bromo-4-[4-(4-furan-2-ylpyrimidin-2-yl)piperazin-1-yl]-1H-pyrazolo[3,4-d]pyrimidine]
–	–	< 100 nM	< 100 nM	Cc1ccc(-c2ccccc2OCCCN2CCOCC2)cc1N1CCN(c2ncnc3[nH]nc(Br)c23)CC1 [Entry 278, 3-bromo-4-(4-{4-methyl-2′-[(3-morpholin-4-ylpropyl)oxy]biphenyl-3-yl}piperazin-1-yl)-1H-pyrazolo[3,4-d]pyrimidine]
–	–	< 100 nM	< 100 nM	Cc1c(CCCN2CCCC2)cc(Cl)cc1N1CCN(c2ncnc3[nH]nc(C#CCO)c23)CC1 [Entry 182, 3-(4-{4-[5-chloro-2-methyl-3-(3-pyrrolidin-1-ylpropyl)phenyl]piperazin-1-yl}-1H-pyrazolo[3,4-d]pyrimidin-3-yl)prop-2-yn-1-ol]
–	–	< 100 nM	< 100 nM	CCCC(F)(F)c1cc(NCCN2CCCC2)c(C)c(N2CCN(c3ncnc4[nH]nc(Br)c34)CC2)c1 [Entry 277, 3-[4-(3-bromo-1H-pyrazolo[3,4-d]pyrimidin-4-yl)piperazin-1-yl]-5-(1,1-difluorobutyl)-2-methyl-N-(2-pyrrolidin-1-ylethyl)aniline]
≥ 10000 nM	1000 to 10000 nM	–	–	Clc1ccc(N2CCN(c3ncnc4[nH]cnc34)CC2)cc1 [Entry 308, 6-[4-(4-chlorophenyl)piperazin-1-yl]-9H-purine]
≥ 10000 nM	1000 to 10000 nM	–	–	CCc1n[nH]c2ncnc(N3CCN(c4cccc(Cl)c4)C(C(=O)NCCN4CCOCC4)C3)c12 (centres unmarked) [Entry 383, 1-(3-chlorophenyl)-4-(3-ethyl-1H-pyrazolo[3,4-d]pyrimidin-4-yl)-N-(2-morpholin-4-ylethyl)piperazine-2-carboxamide]
–	–	1000 to 10000 nM	< 100 nM	Fc1ccc(N2CCN(c3ncnc4[nH]nc(Br)c34)CC2)cc1Cl [Entry 93, 3-bromo-4-[4-(3-chloro-4-fluorophenyl)piperazin-1-yl]-1H-pyrazolo[3,4-d]pyrimidine]
–	–	< 100 nM	< 100 nM	Cc1c(CCCN2CCCC2)cc(Cl)cc1N1CCN(c2ncnc3[nH]nc(C(F)(F)F)c23)CC1 [Entry 61, 4-{4-[5-chloro-2-methyl-3-(3-pyrrolidin-1-ylpropyl)phenyl]piperazin-1-yl}-3-(trifluoromethyl)-1H-pyrazolo[3,4-d]pyrimidine]
1000 to 10000 nM	< 100 nM	–	–	Cc1ccc(Cl)cc1N1CCN(c2ncnc3[nH]ncc23)CC1 [Entry 320, 4-[4-(5-chloro-2-methylphenyl)piperazin-1-yl]-1H-pyrazolo[3,4-d]pyrimidine]
–	–	< 100 nM	< 100 nM	Cc1c(NCCN2CCCC2)cc(OCC2CC2(F)F)cc1N1CCN(c2ncnc3[nH]nc(Br)c23)CC1 (centres unmarked) [Entry 270, 3-[4-(3-bromo-1H-pyrazolo[3,4-d]pyrimidin-4-yl)piperazin-1-yl]-5-{[(2,2-difluorocyclopro-pyl)methyl]oxy}-2-methyl-N-(2-pyrrolidin-1-ylethyl)aniline]
1000 to 10000 nM	< 100 nM	–	–	CCc1n[nH]c2ncnc(N3CCN(c4cc(Cl)c(OC)cc4C)CC3)c12 [Entry 390, 4-{4-[5-chloro-2-methyl-4-(methyloxy)phenyl]piperazin-1-yl}-3-ethyl-1H-pyrazolo[3,4-d]pyrimidine]
≥ 10000 nM	1000 to 10000 nM	–	–	CCc1n[nH]c2ncnc(N3CCN(c4cccc(Cl)c4)C(C(=O)OC)C3)c12 (centres unmarked) [Entry 346, methyl 1-(3-chlorophenyl)-4-(3-ethyl-1H-pyrazolo[3,4-d]pyrimidin-4-yl)piperazine-2-carboxylate]
≥ 10000 nM	1000 to 10000 nM	–	–	CCc1n[nH]c2ncnc(N3CCN(c4ccc(OCCN5CCOCC5)c(Cl)c4)CC3)c12 [Entry 345, 4-(4-{3-chloro-4-[(2-morpholin-4-ylethyl)oxy]phe-nyl}piperazin-1-yl)-3-ethyl-1H-pyrazolo[3,4-d]pyrimidine]
1000 to 10000 nM	1000 to 10000 nM	–	–	COc1cccc(-c2n[nH]c3ncnc(N4CCN(c5cc(Cl)ccc5C)CC4)c23)c1 [Entry 365, 4-[4-(5-chloro-2-methylphenyl)piperazin-1-yl]-3-[3-(methyloxy)phenyl]-1H-pyrazolo[3,4-d]pyrimidine]
–	–	≥ 10000 nM	100 to 1000 nM	CCN(CC)CCOc1cccc(N2CCN(c3ncnc4[nH]nc(Br)c34)CC2)c1 [Entry 189, 2-({3-[4-(3-bromo-1H-pyrazolo[3,4-d]pyrimidin-4-yl)piperazin-1-yl]phenyl}oxy)-N,N-diethylethanamine]
–	–	≥ 10000 nM	< 100 nM	Cc1ccc(Cl)cc1N1CCN(c2ncnc3[nH]nc(Br)c23)CC1=O [Entry 183, 4-(3-bromo-1H-pyrazolo[3,4-d]pyrimidin-4-yl)-1-(5-chloro-2-methylphenyl)piperazin-2-one]
–	–	100 to 1000 nM	< 100 nM	Cc1ccc(C(=O)Nc2ccccc2)cc1N1CCN(c2ncnc3[nH]nc(Br)c23)C[C@@H]1C [Entry 177, 3-[(2S)-4-(3-bromo-1H-pyrazolo[3,4-d]pyrimidin-4-yl)-2-methylpiperazin-1-yl]-4-methyl-N-phenylbenzamide]
–	–	< 100 nM	< 100 nM	CCNC(=O)c1cc(NCCN2CCCC2)c(C)c(N2CCN(c3ncnc4[nH]nc(Br)c34)CC2)c1 [Entry 219, 3-[4-(3-bromo-1H-pyrazolo[3,4-d]pyrimidin-4-yl)piperazin-1-yl]-N-ethyl-4-methyl-5-[(2-pyrrolidin-1-ylethyl)amino]benzamide]
–	–	< 100 nM	< 100 nM	Cc1ccc(-c2ccccc2OCCCN(C)C)cc1N1CCN(c2ncnc3[nH]nc(Br)c23)CC1 [Entry 276, 3-({3′-[4-(3-bromo-1H-pyrazolo[3,4-d]pyrimidin-4-yl)piperazin-1-yl]-4′-methylbiphenyl-2-yl}oxy)-N,N-dimethylpropan-1-amine]
–	–	100 to 1000 nM	< 100 nM	Cc1c(OCCC2CCN(C)CC2)cc(Cl)cc1N1CCN(c2ncnc3[nH]nc(C(F)(F)F)c23)CC1 [Entry 91, 4-[4-(5-chloro-2-methyl-3-{[2-(1-methylpiperidin-4-yl)ethyl]oxy}phenyl)piperazin-1-yl]-3-(tri-fluoromethyl)-1H-pyrazolo[3,4-d]pyrimidine]
1000 to 10000 nM	100 to 1000 nM	–	–	CCc1n[nH]c2ncnc(N3CCN(c4cc(Cl)cc(CNCCN(C)C)c4OC)CC3)c12 [Entry 378, N′-{[5-chloro-3-[4-(3-ethyl-1H-pyrazolo[3,4-d]pyrimidin-4-yl)piperazin-1-yl]-2-(methyloxy)phe-nyl]methyl}-N,N-dimethylethane-1,2-diamine]
1000 to 10000 nM	100 to 1000 nM	–	–	CCc1n[nH]c2ncnc(N3CCN(c4cccc(Cl)c4)C(C(=O)NC)C3)c12 (centres unmarked) [Entry 353, 1-(3-chlorophenyl)-4-(3-ethyl-1H-pyrazolo[3,4-d]pyrimidin-4-yl)-N-methylpiperazine-2-carboxamide]
–	–	≥ 10000 nM	100 to 1000 nM	Clc1ccc(N2CCN(c3ncnc4[nH]nc(Br)c34)CC2)cc1Cl [Entry 75, 3-bromo-4-[4-(3,4-dichlorophenyl)piperazin-1-yl]-1H-pyrazolo[3,4-d]pyrimidine]

SMILES	IC50 (AktK)	IC50 (p70S6K)	IC50 (AktK; Table 1, class symbols per key)	IC50 (p70S6K; Table 1, class symbols per key)
Cc1ccc(Cl)cc1N1CCN(c2ncnc3[nH]nc(C=C4C[C@@H]5CN(C(=O)OCc6ccccc6)C[C@@H]5C4)c23)CC1 [Entry 395, phenylmethyl (3aR,6aS)-5-({4-[4-(5-chloro-2-methylphenyl)piperazin-1-yl]-1H-pyrazolo[3,4-d]pyrimidin-3-yl}methylidene)hexahydrocyclo-penta[c]pyrrole-2(1H)-carboxylate]	1000 to 10000 nM	1000 to 10000 nM	–	–
COc1cc(NCCN2CCCC2)c(C)c(N2CCN(c3ncnc4[nH]nc(Br)c34)CC2)c1 [Entry 255, 3-[4-(3-bromo-1H-pyrazolo[3,4-d]pyrimidin-4-yl)piperazin-1-yl]-2-methyl-5-(methyloxy)-N-(2-pyrrolidin-1-ylethyl)aniline]	–	–	100 to 1000 nM	< 100 nM
CCc1cc(NCCN2CCCC2)c(C)c(N2CCN(c3ncnc4[nH]nc(Br)c34)CC2)c1 [Entry 245, 3-[4-(3-bromo-1H-pyrazolo[3,4-d]pyrimidin-4-yl)piperazin-1-yl]-5-ethyl-2-methyl-N-(2-pyrrolidin-1-ylethyl)aniline]	–	–	100 to 1000 nM	< 100 nM
CCc1n[nH]c2ncnc(N3CCN(c4ncccc4C(N)=O)CC3)c12 [Entry 115, 2-[4-(3-ethyl-1H-pyrazolo[3,4-d]pyrimidin-4-yl)piperazin-1-yl]pyridine-3-carboxamide]	–	–	≥ 10000 nM	100 to 1000 nM
COC(CCC(F)(F)F)(OC)c1cc(NCCN2CCCC2)c(C)c(N2CCN(c3ncnc4[nH]nc(Br)c34)CC2)c1 [Entry 292, 3-[4-(3-bromo-1H-pyrazolo[3,4-d]pyrimidin-4-yl)piperazin-1-yl]-2-methyl-N-(2-pyrrolidin-1-ylethyl)-5-[4,4,4-trifluoro-1,1-bis(methyloxy)butyl]aniline]	< 100 nM	< 100 nM	–	–

— patent US8076338B2, “Kinase modulators and methods of use” (Exelixis, Inc., priority 2004, dated 2011)
